This series can be described thus: Log P by HPLC on reversed phase columns, method [a] (EEC directive 79/831 Annex V.A8). The class given is physicochemical. The conditions noted are these: log P determined according to method [a] (HPLC on reversed phase columns). Here is the method: Measurement of Log P values as provided herein was performed according to EEC directive 79/831 Annex V.A8 by HPLC (High Performance Liquid Chromatography) on reversed phase columns with the following methods: • ^[a] Log P value is determined by measurement of LC-UV, in an acidic range, with 0.1% formic acid in water and acetonitrile as eluent (linear gradient from 10% acetonitrile to 95% acetonitrile). • ^[b] Log P value is determined by measurement of LC-UV, in a neutral range, with 0.001 molar ammonium acetate solution in water and acetonitrile as eluent (linear gradient from 10% acetonitrile to 95% acetonitrile). • ^[c] Log P value is determined by measurement of LC-UV, in an acidic range, with 0.1% phosphoric acid and acetonitrile as eluent (linear gradient from 10% acetonitrile to 95% acetonitrile). If more than one Log P value is available within the same method, all the values are given and separated by “+”. Calibration was done with straight-chain alkan2-ones (with 3 to 16 carbon atoms) with known Log P values (measurement of Log P values using retention times with linear interpolation between successive alkanones). Lambda-max-values were determined using UV-spectra from 200 nm to 400 nm and the peak values of the chromatographic signals In table 1, the log P values were determined according to method [^a]. In table 2, the log P values were determined according to method [^a].

Among the data in US20220144815A1, “1,3,4-OXADIAZOLES AND THEIR DERIVATIVES AS NEW ANTIFUNGAL AGENTS” (Bayer Aktiengesellschaft, priority 2018, published 2022) are logP values, retold here.

`FC(F)c1nnc(-c2ccc(-n3ccnn3)cc2)o1` [Example I-005] registered a logP of 1.73. In the case of `COC(=O)c1ccc(-c2nnc(C(F)(F)F)o2)cc1` [Example I-006] it was 2.97. The compound `FC(F)c1nnc(-c2ccc(-c3ccccc3)cc2)o1` [Example I-007] displayed a logP of 3.57. In the case of `O=C(O)c1ccc(-c2nnc(C(F)(F)F)s2)cc1` [Example I-008] it was 2.41; in that of `FC(F)c1nnc(-c2ccc(Br)cc2)o1` [Example I-009], 2.89. For `FC(F)c1nnc(-c2ccc(Cn3ccnc3)cc2)o1` [Example I-010] the value was 0.60; for `COC(=O)c1ccc(-c2nnc(C(F)(F)F)s2)cc1` [Example I-011], 3.23.

Compound `O=C(Nc1ccc(-c2nnc(C(F)F)o2)cc1)C(F)F` [Example I-012] displayed a logP of 2.01. `FC(F)c1nnc(-c2ccc(Nc3ncccn3)cc2)o1` [Example I-013] displayed a logP of 2.23. In the case of `CCc1noc(-c2ccc(-c3nnc(C(F)F)o3)cc2)n1` [Example I-015] it was 2.94; in that of `COCCNC(=O)c1ccc(-c2nnc(C(F)F)o2)cc1` [Example I-016], 1.58; in that of `Fc1ccccc1Nc1ccc(-c2nnc(C(F)F)o2)cc1` [Example I-017], 3.19. Regarding `CCc1noc(-c2ccc(-c3nnc(C(F)(F)F)o3)cc2)n1` [Example I-018], the logP came out at 3.59. In turn, `FC(F)c1nnc(-c2ccc(-c3nnc(C(F)F)o3)cc2)o1` [Example I-019] registered a logP of 2.44.

As to `COCCNC(=O)c1ccc(-c2nnc(C(F)(F)F)o2)cc1` [Example I-020], the logP is reported as 2.04. In the case of `CC1(C)OB(c2ccc(-c3nnc(C(F)F)o3)cc2)OC1(C)C` [Example I-021] it was 3.84. For `CN(C(=O)c1ccc(-c2nnc(C(F)F)o2)cc1)c1ccccc1` [Example I-022] the value was 2.46. For `FC(F)c1nnc(-c2ccc(COc3ccc(Cl)cc3)cc2)o1` [Example I-024] the value was 4.03; for `Fc1ccccc1C1(Nc2ccc(-c3nnc(C(F)F)o3)cc2)CC1` [Example I-025], 3.57; for `CN(C(=O)c1ccc(-c2nnc(C(F)(F)F)o2)cc1)c1ccccc1` [Example I-026], 3.04. As to `O=C(Nc1ccc(F)cc1F)c1ccc(-c2nnc(C(F)F)o2)cc1` [Example I-027], the logP amounted to 2.57.

As for `O=C(Nc1ccc(F)cc1F)c1ccc(-c2nnc(C(F)(F)F)o2)cc1` [Example I-028], the logP was found to be 3.12.

The compound `O=C(Nc1ccc(F)cc1F)c1ccc(-c2nnc(C(F)(F)F)s2)cc1` [Example I-029] returned a logP of 3.29.

The compound `Nc1ccc(-c2nnc(C(F)F)o2)cn1` [Example I-030] showed a logP of 0.11.

In turn, `FC(F)c1nnc(-c2ccc(Cl)nc2)o1` [Example I-031] yielded a logP of 1.92. Compound `O=C(O)c1ccc(-c2nnc(C(F)F)o2)cn1` [Example I-032] yielded a logP of 0.83. In the case of `CNC(=O)c1ccc(-c2nnc(C(F)F)o2)cn1` [Example I-033] it was 1.32; in that of `CC(=O)Nc1ccc(-c2nnc(C(F)F)o2)cn1` [Example I-034], 1.32; in that of `FC(F)c1nnc(-c2ccc(-c3ccco3)nc2)o1` [Example I-035], 2.33. For `FC(F)c1nnc(-c2ccc(-n3cccn3)nc2)o1` [Example I-036] the value was 2.31; for `FC(F)c1nnc(-c2ccc(C(F)(F)F)nc2)o1` [Example I-037], 2.39; for `COC(=O)Nc1ccc(-c2nnc(C(F)F)o2)cn1` [Example I-038], 1.66. For `C#CCNC(=O)c1ccc(-c2nnc(C(F)F)o2)cn1` [Example I-039] the value was 1.68; for `FC(F)c1nnc(-c2ccc(N3CCCCC3)nc2)o1` [Example I-040], 2.72; for `FC(F)c1nnc(-c2ccc(N3CCOCC3)nc2)o1` [Example I-041], 1.91.

With `CN(C)NC(=O)c1ccc(-c2nnc(C(F)F)o2)cn1` [Example I-042], the logP was 1.14. In the case of `FC(F)c1nnc(-c2ccc(Oc3ccccc3)nc2)o1` [Example I-043] it was 2.90; in that of `CC1(NC(=O)c2ccc(-c3nnc(C(F)F)o3)cn2)CC1` [Example I-044], 2.02; in that of `CC1(C(=O)Nc2ccc(-c3nnc(C(F)F)o3)cn2)CC1` [Example I-045], 2.28.

Take `O=C(NCC1CC1)c1ccc(-c2nnc(C(F)F)o2)cn1` [Example I-046]: the logP is given as 2.16. In the case of `COCCNC(=O)c1ccc(-c2nnc(C(F)F)o2)cn1` [Example I-047] it was 1.55; in that of `Cc1ccc(NC(=O)c2ccc(-c3nnc(C(F)F)o3)cn2)cc1` [Example I-048], 3.14. In the case of `CN(C(=O)c1ccc(-c2nnc(C(F)F)o2)cn1)c1ccccc1` [Example I-049] it was 2.05. As to `O=C(Cc1ccccc1)Nc1ccc(-c2nnc(C(F)F)o2)cn1` [Example I-050], the logP came out at 2.54. `O=C(Nc1ccccc1)Nc1ccc(-c2nnc(C(F)F)o2)cn1` [Example I-051]: the logP is recorded as 2.57.

Consider `CC(Nc1ccc(-c2nnc(C(F)F)o2)cn1)c1ccc(F)cc1` (stereo not drawn) [Example I-052], for which the logP is listed as 2.95. For `Fc1ccccc1Nc1ccc(-c2nnc(C(F)(F)Cl)o2)cn1` [Example I-053] the value was 3.54.

On to `Fc1ccc(C2(Nc3ccc(-c4nnc(C(F)F)o4)cn3)CC2)cc1` [Example I-054], for which the logP was found to be 2.79. For `O=C(Nc1ccc(-c2nnc(C(F)F)o2)cn1)c1ccc(F)cc1F` [Example I-055] the value was 2.77. `Fc1ccccc1C1(Nc2ccc(-c3nnc(C(F)(F)Cl)o3)cn2)CC1` [Example I-057]: the log partition coefficient (logP) turned out to be 3.81. Take `CC(C)(C)OC(=O)N1CCN(c2ccc(-c3nnc(C(F)F)o3)cn2)CC1` [Example I-058]: the logP is 3.25. For `Nc1ncc(-c2nnc(C(F)F)o2)cn1` [Example I-059] the value was 0.75; for `CNc1ncc(-c2nnc(C(F)F)o2)cn1` [Example I-060], 1.23. In the case of `FC(F)c1nnc(-c2cnc(Cl)nc2)o1` [Example I-061] it was 1.55.

Regarding `CN(C)c1ncc(-c2nnc(C(F)F)o2)cn1` [Example I-062], the logP was determined as 1.87.

In turn, `C#CCNc1ncc(-c2nnc(C(F)F)o2)cn1` [Example I-063] registered a logP of 1.59. In the case of `CN(C)Nc1ncc(-c2nnc(C(F)F)o2)cn1` [Example I-064] it was 0.76; in that of `FC(F)c1nnc(-c2cnc(C3=CCCC3)nc2)o1` [Example I-065], 2.70; in that of `CC1(Nc2ncc(-c3nnc(C(F)F)o3)cn2)CC1` [Example I-066], 1.90. For `FC(F)c1nnc(-c2cnc(NCC3CC3)nc2)o1` [Example I-067] the value was 2.16.

Take `COCCNc1ncc(-c2nnc(C(F)F)o2)cn1` [Example I-068]: the logP stood at 1.48. As to `FC(F)c1nnc(-c2cnc(-c3ccccc3)nc2)o1` [Example I-069], the log partition coefficient (logP) is reported as 2.98.

Take `FC(F)c1nnc(-c2cnc(-c3cccnc3)nc2)o1` [Example I-070]: the log partition coefficient (logP) is given as 2.03.

Consider `FC(F)c1nnc(-c2cnc(-c3cccs3)nc2)o1` [Example I-071], for which the logP is on record as 2.64. In the case of `FC(F)c1nnc(-c2cnc(-c3ccsc3)nc2)o1` [Example I-072] it was 2.64.

Take `CC(Nc1ncc(-c2nnc(C(F)F)o2)cn1)C1CC1` (stereo not drawn) [Example I-073]: the logP turned out to be 2.51. For `FC(F)c1nnc(-c2cnc(N3CCOCC3)nc2)o1` [Example I-074] the value was 1.87; for `FC(F)c1nnc(-c2cnc(Cc3ccccc3)nc2)o1` [Example I-075], 2.49; for `FC(F)c1nnc(-c2cnc(Nc3ccccc3)nc2)o1` [Example I-076], 2.54. `Fc1ccc(-c2ncc(-c3nnc(C(F)F)o3)cn2)cc1` [Example I-077]: the logP was determined as 3.70. For `CCn1nccc1-c1ncc(-c2nnc(C(F)F)o2)cn1` [Example I-078] the value was 2.18; for `Fc1cc(-c2ncc(-c3nnc(C(F)F)o3)cn2)ccn1` [Example I-079], 2.33. For `Fc1ccc(-c2ncc(-c3nnc(C(F)F)o3)cn2)cn1` [Example I-080] the value was 2.31; for `Cc1noc(C)c1-c1ncc(-c2nnc(C(F)F)o2)cn1` [Example I-081], 2.57.

With `FC(F)c1nnc(-c2cnc(NC3(C4CC4)CC3)nc2)o1` [Example I-082], the log partition coefficient (logP) is 2.33. The compound `FC(F)c1nnc(-c2cnc(CC3CCCCC3)nc2)o1` [Example I-083] had a log partition coefficient (logP) of 3.40. In turn, `CC(C)(Nc1ncc(-c2nnc(C(F)F)o2)cn1)C1CC1` [Example I-084] gave a logP of 3.26.

In turn, `N#Cc1ccc(-c2ncc(-c3nnc(C(F)F)o3)cn2)cc1` [Example I-085] showed a logP of 2.72.

As a reminder, the logP is the decadic logarithm of the partition coefficient of the neutral form, usually between octanol and water. A lower logP goes with a more hydrophilic compound.
